Structures can show the parent of a compound that is named as a salt. Ends that are not written are not given here.
Tests used:
[1] = system: urethane anaesthetized rats; assay: Cardiovascular response (MAP, PP, HR) of drugs in urethane anaesthetized rats; type: in vivo, rat; details: for decrease in HR after centhaquin in antagonist treated rats, compared to baseline / decrease in MAP after centhaquin in antagonist treated rats, compared to baseline / decrease in PP after centhaquin in antagonist treated rats, compared to baseline / potentiation of centhaquin hypotensive effect compared to vehicle treated rats / potentiation of centhaquin-induced decrease in HR (bradycardia) compared to vehicle treated rats: TAK-044 1 mg/kg or BMS-182874 9 mg/kg + centhaquin 0.15 mg/kg; for maximum decrease in PP after clonidine in antagonist treated rats, compared to baseline / reduction in MAP after clonidine in antagonist treated rats, compared with the baseline: TAK-044 1 mg/kg or BMS-182874 9 mg/kg + clonidine 10 μg/kg; for change in MAP, PP and HR, antagonist alone: TAK-044 1 mg/kg or BMS-182874 9 mg/kg alone; for Bradycardia, Centhaquin, percent change / Decrease in pulse pressure, Centhaquin, percent change / Hypotension, Centhaquin, percent change: centhaquin 0.33 mg/kg [sic], compared to centhaquin response in control rats
Excerpt: Rats were anaesthetized with urethane (1.5 g/kg i.p.) and prepared for the determination of hemodynamic parameters (Gulati and Srimal, 1993; Gulati et al., 1997b). The anesthetized rats were shaved and immobilized to prepare for cannulation. A 2-3 cm incision was made above the femoral vein and artery, and the vessels were dissected and cleaned. The left femoral vein was cannulated (PE-50 tubing, Clay Adams, Parsipanny, N.J.) and secured for drug administration. An ultra-miniature Pressure transducer SPR-320 (2F Polyurethane), with a single pressure sensor side mounted at the tip (Millar Instruments, Houston, Tex.), was inserted in the left femoral artery to acquire the hemodynamic signals. Pressure transducer was connected to bridge amplifier (ML221 Bridge Amp; AD Instruments, Mountain View, Calif., USA) with Viking connector (AEC-10C) and the signals were continuously acquired at a sampling rate of 1000 S^−1 using Millar PowerLab 16/30 data acquisition system (AD Instruments, Mountain View, Calif., USA). MAP, HR, and PP were determined and analyzed with LabChart-5.00 software program (Millar Instruments). After the experiment was completed, the animals were euthanized with higher dose of urethane (3 gm/kg).
The animals were allowed to stabilize for at least 20 min following surgical procedures.
In the above studies, all drugs were injected through the left femoral vein and changes in MAP, HR, and PP after clonidine and centhaquin injection were recorded for 1 hour using Millar PowerLab 16/30 data acquisition system.

[2] = system: rat abdominal aortic ring; assay: Clonidine response on the abdominal aortic ring; details: ET-1 4 nM pretreated aorta
Experimental: The abdominal aorta was isolated and dissected out from urethane (1.5 g·kg^−1 i.p.) anesthetized rats and was transferred to Krebs bicarbonate buffer pH 7.4 (composition in mM, NaCl, 112.0; KCl, 4.7; KH2PO4, 1.2; MgSO4, 1.2; CaCl2, 2.5; NaHCO3, 25.0; glucose, 11.0) with continuous supply of 95% O2 and 5% CO2 at 37±1° C. The tissue was cut into ring segments (3 mm in length) and mounted in organ baths using 10 mm Radnoti glass ring supports. Extra care was taken while cutting and mounting the ring segment to prevent loss of endothelial layer. Tissue was equilibrated for 45 min by applying 2 g of tension with regular buffer change after every 15 min. Vessels were pre-contracted with 100 mM KCl to determine the viability. Clonidine-induced contractions of aortic ring were measured using Radnoti 8 unit tissue bath (Radnoti Glass Technology, Monrovia, Calif.) and the force transducer coupled with a Grass P7D polygraph. The dose response was recorded for 0.25, 0.5, 1, 2, 4, 6, 8, and 10 μM of clonidine with or without ET-1 (4 nM) treatment and ED50 value was calculated. Experiments were performed in Group 1: Vehicle+Clonidine (0.25 to 10 μM); and Group 2: ET-1 (4 nM)+Clonidine (0.25 to 10 μM) using (n=6) rats in each group.

[3] = ET-1 100 ng/kg + clonidine 10 μg/kg, compared to vehicle treated rats receiving clonidine
[4] = ET-1 300 ng/kg + clonidine 10 μg/kg, compared to vehicle treated rats receiving clonidine
[5] = ET-1 900 ng/kg + centhaquin 0.15 mg/kg, compared to vehicle treated rats receiving centhaquin
[6] = ET-1 900 ng/kg + clonidine 10 μg/kg, compared to vehicle treated rats receiving clonidine
[7] = ET-1 300 ng/kg + prazosin 0.1 mg/kg + centhaquin 0.15 mg/kg

In the case of “ET-1: endogenous 21-residue peptide endothelin isopeptide, used as ET agonist (CSCSSLMDKECVYFCHLDIIW; not fully specified; ends and bridges not checked; UniProt P05305 53-73, looked up)”, the “decrease in HR produced by centhaquin, ET-1 versus vehicle treated rats” value ([1]; ET-1 100 ng/kg + centhaquin 0.15 mg/kg) was “similar”, the “attenuation of clonidine induced fall in PP” value ([1]; ET-1 100 ng/kg + clonidine 10 μg/kg) was 33.66% and the “attenuation of clonidine-induced decrease in HR” value [1, 3] was 18.01%. The “attenuation of clonidine-induced fall in MAP” value [1, 3] was 27.63%, the “effect on centhaquin-induced decrease in HR” value ([1]; ET-1 300 ng/kg + centhaquin 0.15 mg/kg) was “significantly attenuated” and the “attenuation of clonidine-induced decrease in HR” value [1, 4] was 21.00%. The “attenuation of clonidine-induced decrease in MAP” value [1, 4] was 27.41%, the “attenuation of centhaquin-induced decrease in HR (increase in HR compared to untreated rats)” value [1, 5] was 21.44% and the “attenuation of centhaquin-induced decrease in MAP (increase in MAP compared to untreated rats)” value [1, 5] was 33.48%. The “attenuation of clonidine-induced decrease in HR (increase in HR compared to untreated rats)” value [1, 6] was 37.42%, the “attenuation of clonidine-induced decrease in MAP (increase in MAP compared to untreated rats)” value [1, 6] was 42.58% and the “change in HR compared to baseline, ET-1 alone” value ([1]; ET-1 100, 300 and 900 ng/kg) was “no change”. For the same molecule, the “change in MAP compared to baseline, ET-1 alone” value ([1]; ET-1 100, 300 and 900 ng/kg) was “fall (p<0.001) followed by significant rise”, the “effect of ET-1 treatment on clonidine-induced fall in MAP” value ([1]; ET-1 100, 300 and 900 ng/kg i.v., clonidine 10 μg/kg i.v., dose-dependent manner) was “significantly attenuated” and the “effect of ET-1 treatment on centhaquin-induced fall in MAP” value ([1]; ET-1 100, 300 and 900 ng/kg, centhaquin 0.15 mg/kg i.v., dose-dependent manner) was “significantly attenuated”. The “attenuation of centhaquin-induced decrease in MAP” value ([1]; ET-1 100 and 300 ng/kg + centhaquin 0.15 mg/kg) was “small statistically insignificant attenuation”, the “attenuation of clonidine induced fall in PP” value ([1]; ET-1 300 and 900 ng/kg + clonidine 10 μg/kg) was “showed attenuation, but did not reach the level of statistical significance” and the “effect of ET-1 pretreatment on contractile response of clonidine” value [2] was “significantly potentiated”.

“cyclo [D-α-aspartyl-3-[(4-phenylpiperazin-1-yl) carbonyl]-L-alanyl-L-α-aspartyl-D-2-(2-thienyl)glycyl-L-leu-Cyl-D-tryptOphyljdisodium salt [TAK-044]” was tested, and the “decrease in HR after centhaquin in antagonist treated rats, compared to baseline” value [1] was 21.94%, the “decrease in MAP after centhaquin in antagonist treated rats, compared to baseline” value [1] was 32.31% and the “decrease in PP after centhaquin in antagonist treated rats, compared to baseline” value [1] was 46.49%. The “potentiation of centhaquin hypotensive effect compared to vehicle treated rats” value [1] was 16.48%, the “potentiation of centhaquin-induced decrease in HR (bradycardia) compared to vehicle treated rats” value [1] was 12.74% and the “maximum decrease in PP after clonidine in antagonist treated rats, compared to baseline” value [1] was 52.72%. For the same molecule, the “reduction in MAP after clonidine in antagonist treated rats, compared with the baseline” value [1] was 36.59%, the “change in MAP, PP and HR, antagonist alone” value [1] was “no significant change” and the “Bradycardia, Centhaquin, percent change” value [1] was “(12.74%)”. For the same molecule, the “Decrease in pulse pressure, Centhaquin, percent change” value [1] was “(23.83%)” and the “Hypotension, Centhaquin, percent change” value [1] was “(16.48%)”.

In the case of `Cc1noc(NS(=O)(=O)c2cccc3c(N(C)C)cccc23)c1C` [BMS-182874, (5-Dimethylamino)-N-(3,4-dimethyl-5-isoxazolyl)-1-naphthalene sulfonamide hydrochloride], the “potentiation of centhaquin induced decrease in HR, more than that produced by TAK-044 treatment” value ([1]; BMS-182874 9 mg/kg versus TAK-044 1 mg/kg, centhaquin 0.15 mg/kg) was 18.63%, the “decrease in HR after centhaquin in antagonist treated rats, compared to baseline” value [1] was 35.72% and the “decrease in MAP after centhaquin in antagonist treated rats, compared to baseline” value [1] was 43.46%. The “decrease in PP after centhaquin in antagonist treated rats, compared to baseline” value [1] was 49.68%, the “potentiation of centhaquin hypotensive effect compared to vehicle treated rats” value [1] was 30.67% and the “potentiation of centhaquin-induced decrease in HR (bradycardia) compared to vehicle treated rats” value [1] was 29.00%. For the same molecule, the “maximum decrease in PP after clonidine in antagonist treated rats, compared to baseline” value [1] was 44.97%, the “reduction in MAP after clonidine in antagonist treated rats, compared with the baseline” value [1] was 29.44% and the “change in MAP, PP and HR, antagonist alone” value [1] was “no significant change”. The “Bradycardia, Centhaquin, percent change” value [1] was “(29.00%)”, the “Decrease in pulse pressure, Centhaquin, percent change” value [1] was “(28.72%)” and the “Hypotension, Centhaquin, percent change” value [1] was “(30.67%)”.

`COc1cc2nc(N3CCN(C(=O)c4ccco4)CC3)nc(N)c2cc1OC` [Prazosin] was tested, and the “effect of prazosin on changes produced in MAP by centhaquin in ET-1 treated rats” value [1, 7] was “completely (p<0.01) blocked”, the “effect of prazosin on decrease in HR induced by centhaquin in ET-1 treated rats” value [1, 7] was “significantly (p<0.05) attenuated” and the “effect of prazosin on decrease in PP induced by centhaquin in ET-1 treated rats” value [1, 7] was “significantly (p<0.001) attenuated”. For the same molecule, the “effect of prazosin on changes in MAP and HR by centhaquin in vehicle treated rats” value ([1]; prazosin 0.1 mg/kg + centhaquin 0.15 mg/kg) was “blocked”.

From US10828368B2, “Therapeutic treatments using centhaquin” (MIDWESTERN UNIVERSITY, priority 2009, dated 2020)
